Patent US10577349B2 (Sanford Burnham Prebys Medical Discovery Institute, priority 2015, dated 2020)

Columns and labels:
[1] = molecular target: EmCV Cap-dependent translation; test: In vitro translation assay, FF-EmCV-Ren construct, cap-dependent (FF luciferase); format: biochemical, rabbit reticulocyte lysates
Outline: (§1)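 Luminescence read-out: firefly signal reports cap-dependent and Renilla signal IRES-dependent translation from FF-IRES-Ren bicistronic RNA in rabbit reticulocyte lysate. Lysate was pre-incubated with compound 1 h at room temperature before adding RNA and translating 2 h at 30° C.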

A375 = test: 48 h Cytotoxicity A375; format: cell-based; details: Homo sapiens, A-375
[2] = molecular target: HCV cap-independent translation; test: In vitro translation assay, FF-HCV-Ren construct, cap-independent (Ren luciferase); format: biochemical, rabbit reticulocyte lysates
Outline: as §1

[3] = molecular target: HCV cap-dependent translation; test: In vitro translation assay, FF-HCV-Ren construct, cap-dependent (FF luciferase); format: biochemical, rabbit reticulocyte lysates
Outline: as §1

[4] = molecular target: EmCV Cap-independent translation; test: In vitro translation assay, FF-EmCV-Ren construct, cap-independent (Ren luciferase); format: biochemical, rabbit reticulocyte lysates
Outline: as §1

Structure (SMILES)	IC50 [1] [µM]	IC50 (A375) [µM]	IC50 [2] [µM]	IC50 [3] [µM]	IC50 [4] [µM]
O=C(/C=C/c1cncc(F)c1)c1c(-c2ccc(C(F)(F)F)cc2)c2cc(Cl)ccc2[nH]c1=O [Compound 83, 3-[(2E)-3-(5-fluoro(3-pyridyl))prop-2-enoyl]-6-chloro-4-[4-(trifluoromethyl)phenyl]hydroquinolin-2-one]	2 to 10	2 to 10	2 to 10	2 to 10	2 to 10
O=C(/C=C/c1ccccc1)c1c(-c2cccnc2)c2cc(Cl)ccc2[nH]c1=O [Compound 7, 6-Chloro-3-(3-phenyl-acryloyl)-4-pyridin-3-yl-1H-quinolin-2-one]	2 to 10	10 to 20	10 to 20	10 to 20	10 to 20
O=C(/C=C/c1ccccn1)c1c(-c2cncc(F)c2)c2cc(Cl)ccc2[nH]c1=O [Compound 100, 3-((2E)-3-(2-pyridyl)prop-2-enoyl)-6-chloro-4-(5-fluoro(3-pyridyl))hydroquinolin-2-one]	10 to 20	2 to 10	10 to 20	10 to 20	10 to 20
O=C(/C=C/c1ccc(F)cc1C(F)(F)F)c1c(-c2ccccc2)c2cc(Cl)ccc2[nH]c1=O [Compound 49, 6-Chloro-3-[3-(4-fluoro-2-trifluoromethyl-phenyl)-acryloyl]-4-phenyl-1H-quinolin-2-one]	2 to 10	< 2	2 to 10	2 to 10	2 to 10
Cn1ccnc1/C=C/C(=O)c1c(-c2ccccc2)c2cc(Cl)ccc2[nH]c1=O [Compound 45, 6-Chloro-3-[3-(1-methyl-1H-imidazol-2-yl)-acryloyl]-4-phenyl-1H-quinolin-2-one]	2 to 10	2 to 10	2 to 10	10 to 20	2 to 10
O=C(/C=C/c1ccncc1)c1c(-c2ccccc2)c2cc(Cl)ccc2[nH]c1=O [Compound 28, 6-Chloro-4-phenyl-3-(3-pyridin-4-yl-acryloyl)-1H-quinolin-2-one]	2 to 10	< 2	2 to 10	2 to 10	2 to 10
O=C(/C=C/c1ccccn1)c1c(-c2ccc(C(F)(F)F)cc2)c2cc(Cl)ccc2[nH]c1=O [Compound 84, 3-((2E)-3-(2-pyridyl)prop-2-enoyl)-6-chloro-4-[4-(trifluoromethyl)phenyl]hydroquinolin-2-one]	2 to 10	< 2	2 to 10	2 to 10	2 to 10
CN(C)c1ccc(/C=C/C(=O)c2c(-c3ccccc3)c3cc(Cl)ccc3[nH]c2=O)cc1 [Compound 35, 6-Chloro-3-[3-(4-dimethylamino-phenyl)-acryloyl]-4-phenyl-1H-quinolin-2-one]	> 20	> 20	> 20	> 20	> 20
COc1ccc2[nH]c(/C=C/C(=O)c3c(-c4ccccc4)c4cc(Cl)ccc4[nH]c3=O)nc2c1 [Compound 65, 6-Chloro-3-[3-(5-methoxy-1H-benzoimidazol-2-yl)-acryloyl]-4-phenyl-1H-quinolin-2-one]	2 to 10	< 2	2 to 10	2 to 10	2 to 10
O=C(/C=C/c1nc2ccccc2[nH]1)c1c(-c2ccc(C(F)(F)F)cc2)c2cc(Cl)ccc2[nH]c1=O [Compound 1, 3-(3-1H-Benzoimidazol-2-yl-acryloyl)-6-chloro-4-(4-trifluoromethyl-phenyl)-1H-quinolin-2-one]	2 to 10	2 to 10	2 to 10	2 to 10	2 to 10
CN(C)c1ccc(-c2c(C(=O)/C=C/c3cncc(F)c3)c(=O)[nH]c3ccc(Cl)cc23)cc1 [Compound 109, 3-[(2E)-3-(5-fluoro(3-pyridyl))prop-2-enoyl]-4-[4-(dimethylamino)phenyl]-6-chlorohydroquinolin-2-one]	2 to 10	2 to 10	2 to 10	2 to 10	2 to 10
Cc1ccc2[nH]c(/C=C/C(=O)c3c(-c4ccccc4)c4cc(Cl)cnc4[nH]c3=O)nc2c1 [Compound 114, (E)-6-chloro-3-(3-(5-methyl-1H-benzo[d]imidazol-2-yl)acryloyl)-4-phenyl-1,8-naphthyridin-2(1H)-one]	2 to 10	2 to 10	10 to 20	> 20	10 to 20
O=C(/C=C/c1cnccn1)c1c(-c2ccccc2)c2cc(Cl)ccc2[nH]c1=O [Compound 52, 6-Chloro-4-phenyl-3-(3-pyrazin-2-yl-acryloyl)-1H-quinolin-2-one]	2 to 10	2 to 10	2 to 10	10 to 20	2 to 10
O=C(/C=C/c1ccncc1)c1c(-c2ccccc2)c2ccncc2[nH]c1=O [Compound 23, 4-Phenyl-3-(3-pyridin-4-yl-acryloyl)-1H-[1,7]naphthyridin-2-one]	> 20	< 2	> 20	> 20	10 to 20
COc1ccc2[nH]c(=O)c(C(=O)/C=C/c3nc4ccccc4[nH]3)c(-c3ccccc3)c2c1 [Compound 21, 3-(3-1H-Benzoimidazol-2-yl-acryloyl)-6-methoxy-4-phenyl-1H-quinolin-2-one]	10 to 20	2 to 10	10 to 20	> 20	10 to 20
O=C(/C=C/c1ccccn1)c1c(-c2cncc(Br)c2)c2cc(Cl)ccc2[nH]c1=O [Compound 104, 3-((2E)-3-(2-pyridyl)prop-2-enoyl)-4-(5-bromo(3-pyridyl))-6-chlorohydroquinolin-2-one]	2 to 10	2 to 10	2 to 10	10 to 20	2 to 10
O=C(/C=C/c1cc2ccccc2s1)c1c(-c2ccccc2)c2cc(Cl)ccc2[nH]c1=O [Compound 36, 3-(3-Benzo[b]thiophen-2-yl-acryloyl)-6-chloro-4-phenyl-1H-quinolin-2-one]	2 to 10	2 to 10	2 to 10	2 to 10	10 to 20
O=C(/C=C/c1nc2ccccc2[nH]1)c1c(-c2cccs2)c2cc(Cl)ccc2[nH]c1=O [Compound 9, 3-(3-1H-Benzoimidazol-2-yl-acryloyl)-6-chloro-4-thiophen-2-yl-1H-quinolin-2-one]	2 to 10	2 to 10	10 to 20	10 to 20	2 to 10
O=C(/C(Br)=C\c1cncc(F)c1)c1c(-c2ccccc2)c2cc(Cl)ccc2[nH]c1=O [Compound 111, 3-[(2E)-2-bromo-3-(5-fluoro(3-pyridyl))prop-2-enoyl]-6-chloro-4-phenylhydroquinolin-2-one]	2 to 10	2 to 10	2 to 10	2 to 10	2 to 10
O=C(/C=C/c1nc2ccccc2[nH]1)c1c(-c2ccc(Cl)cc2)c2cc(Cl)ccc2[nH]c1=O [Compound 5, 3-(3-1H-Benzoimidazol-2-yl-acryloyl)-6-chloro-4-(4-chloro-phenyl)-1H-quinolin-2-one]	2 to 10	< 2	10 to 20	10 to 20	10 to 20
O=C(/C=C/c1ccc(Br)cn1)c1c(-c2ccccc2)c2cc(Cl)ccc2[nH]c1=O [Compound 47, 3-[3-(5-Bromo-pyridin-2-yl)-acryloyl]-6-chloro-4-phenyl-1H-quinolin-2-one]	2 to 10	< 2	2 to 10	2 to 10	2 to 10
O=C(/C=C/c1ccccn1)c1c(-c2ccc(Cl)cc2)c2cc(Cl)ccc2[nH]c1=O [Compound 82, 3-((2E)-3-(2-pyridyl)prop-2-enoyl)-6-chloro-4-(4-chlorophenyl)hydroquinolin-2-one]	2 to 10	2 to 10	2 to 10	2 to 10	2 to 10
COc1cncc(-c2c(C(=O)/C=C/c3ccccn3)c(=O)[nH]c3ccc(Cl)cc23)c1 [Compound 98, 3-((2E)-3-(2-pyridyl)prop-2-enoyl)-6-chloro-4-(5-methoxy(3-pyridyl))hydroquinolin-2-one]	10 to 20	2 to 10	10 to 20	10 to 20	10 to 20
N#Cc1cncc(/C=C/C(=O)c2c(-c3ccccc3)c3cc(Cl)ccc3[nH]c2=O)c1 [Compound 72, 5-[(1E)-3-(6-chloro-2-oxo-4-phenyl(3-hydroquinolyl))-3-oxoprop-1-enyl]pyridine-3-carbonitrile]	2 to 10	< 2	2 to 10	2 to 10	2 to 10
Nc1ccc2[nH]c(=O)c(C(=O)CCc3nc4ccccc4[nH]3)c(-c3ccccc3)c2c1 [Compound 14, 6-Amino-3-(3-1H-benzoimidazol-2-yl-propionyl)-4-phenyl-1H-quinolin-2-one]	> 20	> 20	> 20	> 20	> 20
Cc1ccc(/C=C/C(=O)c2c(-c3ccccc3)c3cc(Cl)ccc3[nH]c2=O)nc1 [Compound 48, 6-Chloro-3-[3-(5-methyl-pyridin-2-yl)-acryloyl]-4-phenyl-1H-quinolin-2-one]	2 to 10	2 to 10	10 to 20	2 to 10	2 to 10
O=C(/C=C/c1ccc(Cl)cc1)c1c(-c2ccccc2)c2cc(Cl)ccc2[nH]c1=O [Compound 33, 6-Chloro-3-[3-(4-chloro-phenyl)-acryloyl]-4-phenyl-1H-quinolin-2-one]	2 to 10	2 to 10	2 to 10	2 to 10	2 to 10
